# Experimental data: US10913952B2, “Environmental stress response transcriptional regulatory network” (Salk Institute for Biological Studies, priority 2016, dated 2021)
# What was measured:
# [1] = tested on: Arabidopsis thaliana; experiment: RNA-seq of ABA-treated etiolated seedlings (ABA time series); assay type: in vivo
# Procedure: For ABA time series experiments, two biological replicates of 3-day-old etiolated, hydroponic-grown wild-type Col-0 seedlings were treated either by 10 μM (+/−)-ABA (MP biomedicals LLC, cat. #190673) dissolved in ethanol or ethanol-only mock control for 1, 4, 8, 12, 24, 36, and 60 hours. For DEX treatment, short term experiment was carried out by treating 3-day-old etiolated, DEX-inducible GFP-DIG1, GFP-DIG2 or GFP lines with 10 μM DEX (Sigma Aldrich, cat. #D9184); long term experiment was carried out by growing the same lines of plants containing 500 nM DEX for 10 days. Total RNA was isolated using the RNeasy Plant Mini Kit (Qiagen, CA, USA, Cat. #74903), and cDNA libraries were constructed using the TruSeq Stranded Total RNA LT Sample Prep Kit (Illumina, CA, USA, Cat. #15032611) according to manufacturers' instructions. Single-end reads were generated by the HiSeq 2500 Sequencing System (Illumina) and mapped to TAIR10 genome assembly using TopHat 2 (v2.0.8) (56). Mapped reads with mapping score equal to or larger than 10 were counted by HTSeq (v0.5.4) (57) and analyzed by edgeR (v3.6.2) (18) to identify differentially expressed genes using contrasts between ABA- and mock-treated samples at each time point and false discovery rate 0.01 or 0.05 as thresholds.
# The genome-wide binding dynamics of a diverse collection of TFs was profiled using ChIP-seq to develop an in planta ABA transcriptional regulatory network. ABA-responsive transcripts were first surveyed in Arabidopsis thaliana, by generating strand-specific RNA-seq libraries from 3-day-old etiolated whole seedlings treated with either 10 uM (+/−)-ABA or an ethanol-containing mock for 1, 4, 8, 12, 24, 36 and 60 hours (FIG. 1A). Among 18,310 expressed genes, 3,061 are DE (FDR<0.01, Table 1) (18) for at least one time point. One hour of ABA treatment leads to moderate DE of many genes, and most transcriptional responses plateau after 8 hours (FIGS. 1B, 2). On the basis of gene expression data, we performed ChIP-seq experiments at four hours post ABA dose. TFs were selected based on responsiveness to ABA and published evidence, aiming to provide a good representation of TF families (FIG. 3; Tables 1 and 2). In general, highly expressed and responsive TFs were chosen in each representative TF family because in the context of an in planta experimental framework, the impact of these TFs on gene expression can be more effectively investigated compared with their weakly expressed homologs. All TF genes were epitope tagged by a recombineering-based approach (19), mostly with large DNA transformable artificial chromosomes, allowing the TFs to be expressed under their native promoters and genomic context (Table 2). The final dataset consisted of one hundred and twenty-two ChIP-seq experiments of 21 TFs from 11 families, including mock- and ABA-treated conditions.
# [2] = tested on: ChIPped TFs; experiment: Western blot of epitope-tagged ChIPped TFs after ABA treatment; assay type: in vivo, Arabidopsis thaliana; conditions: H3 loading control
# [3] = 10 uM ABA treatment for 4 hours
compound,measurement,setting,value
"CC1=CC(=O)CC(C)(C)C1(O)/C=C/C(C)=C\C(=O)O (racemic) [ABA, abscisic acid]",number of differentially expressed (DE) genes,"[1]; 10 uM (+/-)-ABA vs ethanol mock, 1-60 hours, DE for at least one time point, FDR<0.01, among 18,310 expressed genes","3,061"
same,RNA-seq evidence: ABF1,[1]; [3],up regulated
same,RNA-seq evidence: ABF3,[1]; [3],up regulated
same,RNA-seq evidence: ABF4,[1]; [3],up regulated
same,RNA-seq evidence: ANAC032,[1]; [3],up regulated
same,RNA-seq evidence: ANAC102,[1]; [3],up regulated
same,RNA-seq evidence: DREB2A,[1]; [3],up regulated
same,RNA-seq evidence: FBH3,[1]; [3],up regulated
same,RNA-seq evidence: GBF2,[1]; [3],up regulated
same,RNA-seq evidence: GBF3,[1]; [3],up regulated
same,RNA-seq evidence: HAT22,[1]; [3],up regulated
same,RNA-seq evidence: HB6,[1]; [3],up regulated
same,RNA-seq evidence: HSFA6A,[1]; [3],up regulated
same,RNA-seq evidence: MYB3,[1]; [3],up regulated
same,RNA-seq evidence: MYB44,[1]; [3],up regulated
same,RNA-seq evidence: NF-YB2,[1]; [3],up regulated
same,RNA-seq evidence: NF-YC2,[1]; [3],up regulated
same,RNA-seq evidence: RD26 (ANAC072),[1]; [3],up regulated
same,RNA-seq evidence: ZAT6,[1]; [3],up regulated
same,number of differentially expressed TFs,"[1]; first 1, 4 or 8 hours of ABA treatment, edgeR FDR threshold 0.05",Two hundred and twenty-two
same,protein abundance of most ChIPped TFs,[2],elevated
